Test results taken from publication PMC11172311, “Structural and Interactional Analysis of the Flavonoid Pathway Proteins: Chalcone Synthase, Chalcone Isomerase and Chalcone Isomerase-like Protein” (International Journal of Molecular Sciences, 2024).

Legend:
[1] = biological target: T1, PvCHS (chalcone synthase) (Panicum virgatum, UniProt A0A8T0PQ54); test: X-ray crystal structure (co-crystallization); format: binding
T1 construct: gene PVAP13_8KG261900; full-length with N-terminal His6-tag; residues 8 to 395 of 402 resolved
T1 sequence (A0A8T0PQ54 1-402): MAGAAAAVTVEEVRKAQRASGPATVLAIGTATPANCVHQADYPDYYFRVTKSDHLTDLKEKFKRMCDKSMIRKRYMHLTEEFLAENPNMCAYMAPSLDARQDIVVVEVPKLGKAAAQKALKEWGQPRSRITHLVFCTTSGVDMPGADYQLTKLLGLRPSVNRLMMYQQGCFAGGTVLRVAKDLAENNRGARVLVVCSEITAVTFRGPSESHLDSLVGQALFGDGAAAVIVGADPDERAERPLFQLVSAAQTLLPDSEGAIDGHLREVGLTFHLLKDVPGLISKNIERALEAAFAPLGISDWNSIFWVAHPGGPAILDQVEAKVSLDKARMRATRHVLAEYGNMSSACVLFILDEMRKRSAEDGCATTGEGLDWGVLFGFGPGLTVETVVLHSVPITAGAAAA

[2] = biological target: T2, PvCHI (chalcone isomerase) (Panicum virgatum, UniProt A0A8T0N7A2); test: steady-state kinetics at […] nm; substrate inhibition (Km […], KI […]); format: biochemical
T2 construct: gene PVAP13_9KG390224; recombinant, N-terminal 6×-His tag
T2 sequence (A0A8T0N7A2 1-235): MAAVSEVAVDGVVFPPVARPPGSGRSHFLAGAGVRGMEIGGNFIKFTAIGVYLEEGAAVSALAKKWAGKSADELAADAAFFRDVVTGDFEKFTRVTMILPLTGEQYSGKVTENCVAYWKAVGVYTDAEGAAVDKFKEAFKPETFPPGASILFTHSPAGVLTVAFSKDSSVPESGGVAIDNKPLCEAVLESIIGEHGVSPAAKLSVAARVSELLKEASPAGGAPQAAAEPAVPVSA

[3] = biological target: T2, PvCHI (chalcone isomerase); test: steady-state kinetics with naringenin chalcone as substrate, […] liquiritigenin; format: biochemical
[4] = biological target: T3, SbCHI (chalcone isomerase, Bmr30) (Sorghum bicolor, UniProt C5WV22); test: X-ray crystal structure (binary complex); format: binding
T3 construct: gene SORBI_3001G035600; recombinant SbCHI
T3 sequence (C5WV22 1-231): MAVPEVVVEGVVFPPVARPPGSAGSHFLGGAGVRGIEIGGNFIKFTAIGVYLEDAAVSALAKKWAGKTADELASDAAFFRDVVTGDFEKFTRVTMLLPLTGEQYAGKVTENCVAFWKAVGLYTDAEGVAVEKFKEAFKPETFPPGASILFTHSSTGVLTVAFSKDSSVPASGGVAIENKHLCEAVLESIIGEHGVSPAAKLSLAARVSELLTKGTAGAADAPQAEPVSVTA

[5] = biological target: T1, PvCHS (chalcone synthase); test: X-ray crystal structure (co-crystallization, ternary complex with CoA); format: binding

CC(C)(COP(=O)(O)OP(=O)(O)OC[C@H]1O[C@@H](n2cnc3c(N)ncnc32)[C@H](O)[C@@H]1OP(=O)(O)O)[C@@H](O)C(=O)NCCC(=O)NCCS [CoA]
X-ray crystal structure (co-crystallization) [1]: The electron density corresponding to an extended CoA molecule (Figure 2B) along a continuous tunnel

O=C(/C=C/c1ccc(O)cc1)c1ccc(O)cc1O [isoliquiritigenin]
Ki [2]: 11.2 µM

O=C1C[C@@H](c2ccc(O)cc2)Oc2cc(O)ccc21 [liquiritigenin]
Ki [3]: 0.285 µM
X-ray crystal structure (binary complex) [4]: the electron density corresponding to liquiritigenin that had been added to the crystallization buffer was clearly identified

O=C1C[C@@H](c2ccc(O)cc2)Oc2cc(O)cc(O)c21 [naringenin]
X-ray crystal structure (co-crystallization, ternary complex with CoA) [5]: one naringenin molecule was visible in the concave pocket established at the interface between two PvCHS dimers
